Test results from patent US9434978B2, “Culture medium for screening or enrichment of methicillin-resistant S. aureus” (BIO-RAD INNOVATIONS, priority 2009, dated 2016).

Tested on: MSSA
Experiment: Specificity of the medium on the MSSA strains
Format: cell-based, Staphylococcus aureus
Conditions: 8 MSSA strains; for number of MSSA strains that grew at 24 h after stress: plates 3 days at 37° C. before inoculation
Description: The basal medium comprises peptone, salts, antifungal and antibacterial agents to inhibit the growth of Gram negative bacteria and fungi. The basal medium is chosen to promote the growth of staphylococci, in particular Staphylococcus aureus.
Several strains of MRSA (methicillin resistant S. aureus) and MSSA (methicillin susceptible S. aureus) have been chosen from a collection of strains. Strains were cultivated first on a non selective medium. The colonies are used to perform a “heavy inoculum or HI”, corresponding to approximately 10^8 bacteria/mL inoculated as a spot on a small portion of the plate, and a “light inoculum or LI”, corresponding to approximately 10^5 bacteria/mL streaked on a large portion of the plate. Plates were incubated for 48 h at 35-37° C. The reading was performed at 24 and 48 h of incubation time.
Abbreviations and legends to the Tables: • cefotetan (CTT) • ceftriaxone (CRO) • cefuroxime (CXM) • cefsulodin (CFS), • Cefepime (FEP) • Cefoperazone (CFP) • cefpodoxime (CPD) • moxalactam (MOX) • cefoxitin (FOX) • cefmetazole (CMT) • ceftiofur (XLN) • G: growth (if nothing else is written, “G” means growth with HI and LI at 24 h); Imp G: heavy growth; AG: absence of growth; cfu: colony forming unit; μcfu: pinpoint colonies; SENS: Sensitivity (%); SPE: Specificity (%); MRSA: methicillin-resistant Staphylococcus aureus; MSSA: methicillin-sensitive Staphylococcus aureus; MRSE: methicillin-resistant Staphylococcus epidermidis; MSSE: methicillin-sensitive Staphylococcus epidermidis; Results
When two cephalosporins are added, the stability of the formula is increased. Due to the fact that the molecules are unstable, growth of MSSA often appears after stress. The inventors have mimicked the stress due to transportation of the Petri dishes to the customer's lab, in summer, by placing the plates for 3 days at 37° C. before inoculation and incubation 24 or 48 h. The basal medium composition was the same as described in Example 1. Abbreviations have the same meaning.

Row | Compound | number of MSSA strains that grew at 24 h after stress | number of MSSA strains able to grow at 24 h (plates not submitted to stress)
1 | CO/N=C(\C(=O)N[C@@H]1C(=O)N2C(C(=O)O)=C(CSc3nc(=O)c(=O)[nH]n3C)CS[C@H]12)c1csc(N)n1 [CRO, ceftriaxone] | four | one
2 | CO[C@@]1(NC(=O)Cc2cccs2)C(=O)N2C(C(=O)O)=C(COC(N)=O)CS[C@@H]21 [FOX, cefoxitin] | 4 | 
3 | CO[C@@]1(NC(=O)C(C(=O)O)c2ccc(O)cc2)C(=O)N2C(C(=O)O)=C(CSc3nnnn3C)CO[C@@H]21 (stereo partly shown) [MOX, moxalactam] | 4 | 
